The results in this text go back to article PMC12498190, “A Photocaged N‐Phosphonopiperidinone as a Selective Photo‐Cleavable DPP8/9 Inhibitor” (Chembiochem, 2025).

The target of the test is T1, prolyl endopeptidase (PREP) (Homo sapiens, UniProt P48147).
T1 construct: endogenous in cells; host or cells: HEK293 (Cytion, Germany, 300192)
T1 sequence (P48147 1-710): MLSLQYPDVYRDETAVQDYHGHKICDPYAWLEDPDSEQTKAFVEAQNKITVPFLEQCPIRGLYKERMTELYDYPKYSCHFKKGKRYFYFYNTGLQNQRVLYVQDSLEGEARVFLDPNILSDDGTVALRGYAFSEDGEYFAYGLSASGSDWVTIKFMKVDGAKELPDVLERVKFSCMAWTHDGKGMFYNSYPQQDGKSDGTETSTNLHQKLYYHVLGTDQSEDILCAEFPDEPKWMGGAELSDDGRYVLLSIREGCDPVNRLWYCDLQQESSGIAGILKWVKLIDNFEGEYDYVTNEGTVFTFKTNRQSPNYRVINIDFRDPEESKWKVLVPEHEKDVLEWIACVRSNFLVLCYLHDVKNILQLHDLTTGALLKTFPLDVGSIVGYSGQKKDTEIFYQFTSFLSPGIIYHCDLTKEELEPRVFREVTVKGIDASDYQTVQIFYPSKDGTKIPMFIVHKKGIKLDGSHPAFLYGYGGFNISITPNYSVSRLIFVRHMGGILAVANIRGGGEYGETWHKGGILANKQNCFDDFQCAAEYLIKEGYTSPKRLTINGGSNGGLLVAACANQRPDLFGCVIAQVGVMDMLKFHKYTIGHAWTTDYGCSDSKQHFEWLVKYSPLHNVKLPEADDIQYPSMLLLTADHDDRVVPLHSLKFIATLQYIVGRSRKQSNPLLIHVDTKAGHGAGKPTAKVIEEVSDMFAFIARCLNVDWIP
In words: In vitro gel-based competitive ABPP in HEK293 cell lysates, 70 kDa band. To be noted: HEK293 lysate; 10 µM competitor, 30 min; 10 µM 2; green light 5 min. The protocol: Therefore, HEK293 cell lysates were pre‐incubated with 10 µM 5 or DMSO vehicle control for 30 min, followed by a labeling reaction with 2 µM of the serine hydrolase‐specific ABP fluorophosphonate‐alkyne (≡FP) or 10 µM 2 (Figure 2B). […] Of note, this band has been previously assigned as DPP9 (DPP8 would migrate in the same range, but is only expressed at low levels in the used cell line and therefore cannot be visualized by this approach).^[ [36] ^, [37] ^] […] Again, this labeling was observed regardless of prior irradiation. Subsequently, the competitive labeling experiment was conducted by pre‐incubation with compound 5, with or without subsequent irradiation.
Figure 2 Competitive ABPP with photo‐cleavable inhibitor 5 in HEK293 cells. […] HEK293 cells were irradiated with a green LED lamp in the presence of 0.5% DMSO for 5 min (‘light’), and cell viability was measured after 24 h. […] For both compounds, cell viability was measured under ‘dark’ (not irradiated) and ‘light’ (irradiated for 5 min with a green LED lamp after the addition of the inhibitor) conditions. […]
For in vitro ABPP, cell lysates were generated from HEK293 cells grown on a 10 cm tissue dish. […] The cell lysates were cleared via centrifugation (30 min, 20,817 × g, 4 °C), and protein concentration was determined with a modified Bradford assay using Roti‐Nanoquant (Carl Roth, Germany). […]

Consider `CCCCCc1ccc(SCCP(=O)(OCC)N2CCC[C@H](NC(=O)OCC3=C4C(C)=CC(C)=[N+]4[B-](C)(C)n4c(C)cc(C)c43)C2=O)cc1` (stereo partly shown) [Compound 5], for which the “Competition of PREP band labeling by ABP 2 (in words)” value is given as “slight reduction”.
